Results taken from ChEMBL document CHEMBL3638798, “Metastin derivative and use thereof” (2013).

Biological target: KiSS-1 receptor (Homo sapiens, UniProt Q969F8)
Assay: Binding Assay: Binding inhibition assay using human GPR54.

KiSS-1 receptor, sequence (Q969F8 whole entry): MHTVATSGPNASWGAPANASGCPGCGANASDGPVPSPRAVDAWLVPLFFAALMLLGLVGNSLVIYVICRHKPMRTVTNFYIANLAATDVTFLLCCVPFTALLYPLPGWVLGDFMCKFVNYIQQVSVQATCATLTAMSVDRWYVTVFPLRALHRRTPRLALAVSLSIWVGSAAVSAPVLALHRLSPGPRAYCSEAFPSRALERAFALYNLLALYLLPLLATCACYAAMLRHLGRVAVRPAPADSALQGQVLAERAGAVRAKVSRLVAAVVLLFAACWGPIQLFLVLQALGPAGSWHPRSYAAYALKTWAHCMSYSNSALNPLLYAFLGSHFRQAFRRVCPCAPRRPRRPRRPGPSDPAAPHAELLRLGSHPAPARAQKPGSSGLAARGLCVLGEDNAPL

IC50: 0.71 nM
Structure (SMILES): CNCC(=O)N[C@@H](CC(C)C)C(C)=O
